We go through 3 molecules from article PMC9278120, “Epitope alteration by small molecules and applications in drug discovery” (Chemical Science, 2022).

Usually EC50 stands for the concentration giving half of the maximal effect. Higher therefore signals weaker potency.

Test [1] concerns the target T1, amyloid beta (Aβ1–40) (Homo sapiens, UniProt P05067). Briefly: FRET titration of ternary complex with 4G8 and PE-labelled secondary antibody; dot blot; fluorescence probe in competition. The test is classed as binding. Details: gene APP; Aβ1–40 monomers (also oligomers and aggregates); with 4G8 antibody.
For test [2], the target named is T1, amyloid beta (Aβ1–40). Briefly: fluorescence competition with CRANAD-3; also antibody dot blot, MSD, Simoa and ThT aggregation assay. The format is binding. Details: gene APP; Aβ1–40 monomers.
In test [3] the target is T1, amyloid beta (Aβ1–40). Briefly: concentration-dependent 4G8 dot blot (one-site binding fit); ANS fluorescence; FRET; MSD/Simoa. More on the design: gene APP; Aβ1–40; fragment Aβ17–24 also tested by ANS; with 4G8 antibody.

T1 sequence (P05067 672-711): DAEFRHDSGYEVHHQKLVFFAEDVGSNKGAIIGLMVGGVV

Take `CCN(CC)c1ccc(/C=C/C2=CC(/C=C/c3ccc(N(CC)CC)nc3)=[O+][B-](F)(F)O2)cn1` [CRANAD-3]: on amyloid beta (Aβ1–40) [1], the “FRET titration of ternary complex with 4G8 and PE-labelled secondary antibody; d” value is “enhanced antibody recognition was due to the formation of the ternary complex of CRANAD-3, Aβs and 4G8 antibody”. With `Cc1ccc(NC(=O)Nc2cc(C(F)(F)F)ccc2F)cc1Nc1ccc2c(c1)NC(=O)/C2=C\c1ccc[nH]1` [GNF-5837], the Ki on amyloid beta (Aβ1–40) [2] was 4.16 ± 1.04 nM. Turning to CRANAD-17, the EC50 on amyloid beta (Aβ1–40) [3] amounted to 121 nM.
